Data reported in patent US12139473B2, “Substituted-N-heteroaryl compounds and uses thereof” (Bionomics Limited, priority 2019, dated 2024).

How the values were obtained:
hKv3.2 = target: T1, hKv3.2 (Homo sapiens, UniProt Q96PR1); assay: Automated patch clamp electrophysiology (Patchliner), CHO/Kv3.2 cells; assay type: cell-based; settings: 10 μM compound, hKv3.2 in CHO-K1, whole-cell; for activation at 10 µM: peak current at voltage step of −10 mV vs vehicle (0.33% DMSO), read-out: Kv3.2 Activity at 10 μM Potentiation (%); for Kv3.2 Activity at 10 μM Voltage Shift (mV): voltage shift of the IV curve at V1/2
T1 construct: expressed in transfected cells
T1 sequence (Q96PR1 1-638): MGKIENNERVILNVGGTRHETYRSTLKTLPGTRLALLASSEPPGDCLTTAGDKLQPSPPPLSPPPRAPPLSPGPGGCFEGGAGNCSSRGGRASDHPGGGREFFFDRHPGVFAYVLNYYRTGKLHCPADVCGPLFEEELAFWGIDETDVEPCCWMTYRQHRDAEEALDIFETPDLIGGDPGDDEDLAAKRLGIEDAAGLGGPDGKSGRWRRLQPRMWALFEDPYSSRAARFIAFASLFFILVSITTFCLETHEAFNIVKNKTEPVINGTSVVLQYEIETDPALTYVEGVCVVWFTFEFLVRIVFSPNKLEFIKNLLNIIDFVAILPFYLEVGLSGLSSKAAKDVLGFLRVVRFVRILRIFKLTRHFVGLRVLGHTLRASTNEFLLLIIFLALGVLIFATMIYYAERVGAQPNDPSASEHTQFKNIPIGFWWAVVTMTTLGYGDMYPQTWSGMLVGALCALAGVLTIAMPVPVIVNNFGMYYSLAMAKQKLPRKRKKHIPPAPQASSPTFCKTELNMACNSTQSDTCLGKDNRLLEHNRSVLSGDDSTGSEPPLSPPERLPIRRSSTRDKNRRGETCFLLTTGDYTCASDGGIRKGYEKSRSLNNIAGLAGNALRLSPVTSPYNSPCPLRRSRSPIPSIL
Protocol: hKv3.1, hKv3.2, hKv3.3, and hKv3.4 were stably expressed in CHO-K1 (Chinese hamster ovary) cells and kept under constant antibiotic selection. For in vitro assays, cells were maintained in appropriate growth medium at 37° C. and 5% CO2 in a humidified incubator.
hKv3.X expressing cells were plated in T-25 flasks for 3-4 days at 37° C. (no selection antibiotic) prior to use and grown to 80% confluence. Cells were washed twice with PBS (calcium and magnesium free) and detached with a 5-minute treatment at 37° C. with 2-3 mls of Accutase®. Cells were collected, and flask was washed in CHO-SFM II media (Life Technologies Gibco), centrifuged for 2 minutes at ˜110×g and resuspended to obtain a single cell suspension of ˜2-3×10^6 cells/ml.
The intracellular solution contained the following (in mM): KCl 50, NaCl 10, KF 60, EGTA 20, HEPES 10, adjusted to pH 7.2 with KOH and an osmolarity of 285 mOsmol. Seal enhancer was purchased from Nanion (80 mM NaCl, 3 mM KCl, 10 mM MgCl2, 35 mM CaCl2), 10 mM HEPES, pH7.4, 298 mOsmol. The external solution contained (in mM): NaCl 140, KCl 4, CaCl2) 2, MgCl2 1, HEPES 10, Glucose 5, adjusted to pH7.4 and an osmolarity of 298 mOsmol.
All compounds were initially tested at 10 uM at a final DMSO concentration of 0.33%. Compounds were dissolved in dimethylsulfoxide (DMSO) at a stock concentration of 30 mM. The compound was further diluted 1:10 to give a stock concentration of 3 mM in DMSO. The final assay solution was diluted 1:300 in External solution to give a final concentration of 10 uM. For the DMSO Control Buffer 30 uL of DMSO was added to 10 mL buffer.
All electrophysiological recordings were performed at ambient temperature (21-23° C.) using automated patch clamp (Patchliner, Nanion Technologies GmbH) in the whole-cell configuration.
Cell membrane potentials were held at −80 mV, and currents were evoked by voltage steps (1000 ms duration) from −60 to +60 mV in 10 mV increments. This was performed first with vehicle (0.33% DMSO) and then with 10 uM compound, after a 3-minute incubation period. Data was taken from 4 cells per assay.
The recordings were analysed and selected using peak current amplitude (>100 pA at the −10 mV voltage step) in the absence of compound to eliminate unsuitable cells from analysis. Peak current amplitude was measured and recorded for each voltage step and data was normalised to the maximum current at +60 mV. The normalised Kv3.x currents following addition of the compound were then compared with the currents recorded prior to compound addition (vehicle control). Positive modulation was determined as % potentiation at the voltage step of −10 mV=[current (cmpd)/current (veh)]*100−100. % potentiation≥50% was considered acceptable. In addition, voltage shift of the IV curve at V1/2 was measured. V1/2 of ≥−5 mV was also considered acceptable. IV curves were plotted in GraphPad Prism (software version 6.0) and fitted with a Boltzmann equation, where V1/2 is the voltage at half-maximal activation.

hKv3.1 = target: T2, hKv3.1 (Homo sapiens, UniProt P48547); assay: Automated patch clamp electrophysiology (Patchliner), CHO/Kv3.1 cells; assay type: cell-based; settings: 10 μM compound, hKv3.1 in CHO-K1, whole-cell; for Kv3.1 Activity at 10 μM Potentiation (%): peak current at voltage step of −10 mV vs vehicle (0.33% DMSO); for Kv3.1 Activity at 10 μM Voltage Shift (mV): voltage shift of the IV curve at V1/2
T2 construct: expressed in transfected cells
T2 sequence (P48547 1-511): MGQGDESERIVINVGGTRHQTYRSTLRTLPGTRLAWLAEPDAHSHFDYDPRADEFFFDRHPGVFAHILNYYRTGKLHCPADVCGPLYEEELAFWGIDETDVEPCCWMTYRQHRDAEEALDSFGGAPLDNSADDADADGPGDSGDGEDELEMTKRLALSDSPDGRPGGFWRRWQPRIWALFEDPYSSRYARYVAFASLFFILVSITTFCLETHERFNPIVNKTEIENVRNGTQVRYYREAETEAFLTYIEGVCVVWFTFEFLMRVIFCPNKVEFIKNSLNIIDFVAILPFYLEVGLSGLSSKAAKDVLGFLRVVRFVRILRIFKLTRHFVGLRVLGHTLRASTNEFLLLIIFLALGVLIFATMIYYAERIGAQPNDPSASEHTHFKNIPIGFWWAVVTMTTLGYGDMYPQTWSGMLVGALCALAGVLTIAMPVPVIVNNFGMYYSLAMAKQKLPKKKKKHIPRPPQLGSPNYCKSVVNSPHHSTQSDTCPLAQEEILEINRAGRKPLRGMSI
Summary of the method: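 Whole-cell automated patch clamp on CHO-K1 stably expressing hKv3.1 or hKv3.2, 21-23 °C, held at −80 mV with 1000 ms steps from −60 to +60 mV. Compound at 10 uM final (0.33% DMSO) after 3-min incubation versus vehicle, 4 cells; % potentiation at −10 mV and Boltzmann-fitted V1/2 shift.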

Row | SMILES | activation at 10 µM (hKv3.2) [%] | Kv3.2 Activity at 10 μM Voltage Shift (mV) (hKv3.2) | Kv3.1 Activity at 10 μM Potentiation (%) (hKv3.1) | Kv3.1 Activity at 10 μM Voltage Shift (mV) (hKv3.1)
1 | CC[C@H]1NC(=O)N(c2nccc(Oc3ccc(C)c(OC)c3)n2)C1=O [Example 56, (5R)-5-ethyl-3-[4-(3-methoxy-4-methyl-phenoxy)pyrimidin-2-yl]imidazolidine-2,4-dione] | 35 | −4.6 mV | 26 | −5.0
2 | Cc1ccc(Oc2cc(N3C(=O)NC(C)(C)C3=O)ncn2)cc1F [Example 16, 3-[6-(3-fluoro-4-methyl-phenoxy)pyrimidin-4-yl]-5,5-dimethyl-imidazolidine-2,4-dione] | 24 | −2.8 mV | 63 | −4.2
3 | Cc1ccc(Oc2cc(N3C(=O)NC(C)(C)C3=O)ncn2)c2c1OCC21CC1 [Example 47, 5,5-dimethyl-3-[6-(7-methylspiro[2H-benzofuran-3,1′-cyclopropane]-4-yl)oxypyrimidin-4-yl]imidazolidine-2,4-dione] | 54 | −4.9 mV | 36 | −2.8
4 | COc1cc(Oc2cc(N3C(=O)NC4(CCCC4)C3=O)ncn2)ccc1F [Example 14, 3-[6-(4-fluoro-3-methoxy-phenoxy)pyrimidin-4-yl]-1,3-diazaspiro[4.4]nonane-2,4-dione] | 42 | −1.1 mV | 43 | −2.3

Next, values leading:

Row | activation at 10 µM (hKv3.2) [%] | Kv3.2 Activity at 10 μM Voltage Shift (mV) (hKv3.2) | Kv3.1 Activity at 10 μM Potentiation (%) (hKv3.1) | Kv3.1 Activity at 10 μM Voltage Shift (mV) (hKv3.1) | SMILES
5 | -7 | +1.6 mV | 2 | −1.5 | COc1cc(Oc2ccnc(N3C(=O)NC4(CCCCC4)C3=O)n2)ccc1C [Example 50, 3-[4-(3-methoxy-4-methyl-phenoxy)pyrimidin-2-yl]-1,3-diazaspiro[4.5]decane-2,4-dione]
6 | 1 | −0.3 mV | 17 | −2.7 | COc1cc(Oc2cc(N3C(=O)NC4(CCCCC4)C3=O)ncn2)ccc1F [Example 15, 3-[6-(4-fluoro-3-methoxy-phenoxy)pyrimidin-4-yl]-1,3-diazaspiro[4.5]decane-2,4-dione]
